The values that follow come from patent US12721844B2, “Chronic kidney disease treatment or prevention method” (Japan Tobacco Inc., priority 2019, dated 2026).

SMILES strings stand for the structures.

One data set deals with T1, human SGLT1 (Homo sapiens, UniProt P13866).
T1 sequence (P13866 1-664): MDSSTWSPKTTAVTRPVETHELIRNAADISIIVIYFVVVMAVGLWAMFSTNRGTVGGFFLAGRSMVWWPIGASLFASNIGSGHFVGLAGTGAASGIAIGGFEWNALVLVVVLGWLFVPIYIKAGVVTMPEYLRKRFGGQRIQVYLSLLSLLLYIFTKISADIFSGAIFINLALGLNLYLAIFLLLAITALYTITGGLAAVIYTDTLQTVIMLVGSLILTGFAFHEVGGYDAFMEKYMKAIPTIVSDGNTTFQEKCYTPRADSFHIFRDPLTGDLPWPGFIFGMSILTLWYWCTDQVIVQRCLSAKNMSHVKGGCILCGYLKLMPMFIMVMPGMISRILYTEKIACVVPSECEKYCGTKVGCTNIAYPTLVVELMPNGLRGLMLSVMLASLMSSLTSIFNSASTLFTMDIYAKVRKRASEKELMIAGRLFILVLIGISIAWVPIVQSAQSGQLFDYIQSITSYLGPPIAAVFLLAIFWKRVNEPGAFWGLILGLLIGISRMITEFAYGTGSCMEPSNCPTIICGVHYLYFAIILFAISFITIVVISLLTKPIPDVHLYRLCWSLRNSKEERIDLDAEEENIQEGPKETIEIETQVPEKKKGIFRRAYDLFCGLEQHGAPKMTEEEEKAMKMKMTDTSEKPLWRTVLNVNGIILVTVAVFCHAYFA
Description: Assessment of SGLT1 inhibitory activity (14C-AMG uptake in human SGLT1-stably-expressing CHO-K1 cell line). Format: cell-based. Particulars: qualitative statement. The method, then:
Assessment of SGLT1 Inhibitory Activity
SGLT1 inhibitory activities of test compounds (IC50 values) were calculated based on the amount of intracellular uptake of labelled […] (^14C-AMG) transported by SGLT1.
1) Formation of Human SGLT1-Expressing Plasmid
A DNA fragment containing human SGLT1 was amplified by PCR (Polymerase Chain Reaction) using pCMV6-hSGLT1 (OriGene) as a template. In the human SGLT1, NheI recognition and cleavage sequence was added to the upstream of Kozac consensus sequence derived from a vector, and a stop codon, TAG, and SalI recognition and cleavage sequence were added to the immediate downstream of the protein-translating region of human SGLT1. […]
Human SGLT1-stably-expressing cell lines were seeded at 5×10^4 cells/well on BioCoat™ Poly-D-Lysine 96 well plate with Lid (Becton, Dickinson and Company) and cultured at 37° C. under 5% CO2 overnight. […] In the assessment for the uptake ability of ^14C-AMG, the total amount of the cell lysate was transferred to OptiPlate 96 (Perkin-E1mer) with 100 μL/well of MicroScint-40 (Perkin-E1mer) dispensed and ^14C of CPM was measured with TOPCOUNT NXT (Perkin-E1mer).
Data was calculated by deducting the average value of CPM for blank well from the average value of CPM for each well treated. […]

Data set [1] has as its system glucose-loaded SD rats. Description: OGTT (Oral Glucose Tolerance Test), Test Example 2. Particulars: 1, 3, or 10 mg/kg oral, 16 hours before glucose load; compared to vehicle. Format: in vivo, rat. On the procedure: (§1) OGTT (Oral Glucose Tolerance Test)
Vehicle (0.5% methylcellulose solution) or Compound 1 (1, 3, or 10 mg/kg) suspended in a 0.5% methylcellulose solution was orally administered in 5 mL/kg to an about 4-hour-fasted male SD rat (8-week old, Nihon Charles River K.K., 6 cases for each group). […] Statistical analyses were based on Steel's multiple test. The significance level was two-sided 5%.

Data set [2] deals with glucose-loaded SD rats. As to the kind of experiment: OGTT (Oral Glucose Tolerance Test), Test Example 3. Format: in vivo, rat. Particulars: 3 mg/kg oral, 16 hours before glucose load; compared to vehicle. On the procedure: as §1
Vehicle (0.5% methylcellulose solution), or Compound 1, Compound A, or Compound B (3 mg/kg each) suspended in a 0.5% methylcellulose solution was orally administered in 5 mL/kg to an about 4-hour-fasted male SD rat (8-week old, Nihon Charles River K.K., 5 cases for each group).
Statistical analyses were based on Dunnett's multiple group test. The significance level was two-sided 5%.

A further data set deals with male SDT fatty rats. Description: Assessment of renal protective effect (GFR in SDT fatty rats), Test Example 5. It is filed as in vivo, rat. The note with it: 2 mg/kg oral once a day, 16 weeks; vs vehicle group of SDT fatty rats. The method, then: Assessment of Renal Protective Effect
Vehicle (0.5% methyl cellulose solution), Compound 1 (2 mg/kg), or dapagliflozin (0.3 mg/kg) was orally administered once a day to male SDT fatty rats (7-week old, CLEA Japan, Inc.); and as a normal control, vehicle was orally administered once a day to male SD rats (7-week old, CLEA Japan, Inc.). 16 Weeks after the administration, GFR (mL/min/100 g B.W.) was measured with a transdermal GFR monitor (MediBeacon). For statistical analysis, Student's test was conducted between the vehicle-administered group of SD rats and the vehicle-administered group of SDT fatty rats. Dunnett's multiple test was conducted for the Compound 1 and dapagliflozin groups to the vehicle group of SDT fatty rats. The significance level was two-sided 5%.

The test system of data set [3] is 5/6-kidney-removed rats (male Wistar). As to the kind of experiment: Assessment of renal protective effect 2 (5/6-kidney-removed rats), Test Example 6. It is filed as in vivo, rat. Particulars: 2 mg/kg/day mixed with feed, vs vehicle-administered group. On the procedure: Assessment of Renal Protective Effect 2
7-Week old male Wistar rats (Japan SLC, Inc.) were treated by removing 2/3 of the left kidney under isoflurane anesthesia and then removing the whole right kidney one week later to prepare 5/6-kidney-removed rats. Compound 1 (2 mg/kg/day) mixed with feed was orally administered to the rats from the age of 9 weeks. As a normal control, male Wistar rats at the same age were set as a sham group. […] For statistical analysis, Student's test was conducted between the vehicle-administered group and the Compound 1-administered group. […] For statistical analysis, Student's test or Aspin-Welch was conducted.

Regarding `C[C@H]1C(=O)NC[C@@H]1C(=O)Nc1cc(-c2cc(F)cc(OC(C)(C)C)c2)n(C(F)(F)F)n1` [Example 1, (3R,4R)-N-(5-(3-(tert-butoxy)-5-fluorophenyl)-1-(trifluoromethyl)-1H-pyrazol-3-yl)-4-methyl-5-oxopyrrolidine-3-carboxamide], the SGLT1 inhibitory activity entry on human SGLT1 was “confirmed to have the SGLT1 inhibitory activity”. Also, the “blood glucose level after the glucose load (Δ AUC to 120 minutes, % of Vehicle)” value in the data set with glucose-loaded SD rats [1] and in the data set on glucose-loaded SD rats [2] was “significantly reduced the blood glucose level” each time. Besides, the “GFR (mL/min/100 g B.W.)” value in the data set on male SDT fatty rats was “inhibited the increase of GFR”. For the same compound, in data set [3] (16, 30, and 69 days), the “protein quantities in the urine (mg/mgCr)” value is on record as “lower than those of the vehicle-administered group”. In addition, the “creatinine clearance (mL/min)” value in data set [3] is “significantly higher than that of the vehicle-administered group”. In data set [3], the “urea nitrogen levels (mg/dL)” value was “significantly lower than those of the vehicle-administered group”.
